Source: paper PMC4286351 (Journal of undergraduate chemistry research, 2013)

Tests used:
rat P450 2B1 = biological target: T1, rat P450 2B1 (Rattus norvegicus, UniProt P00176); experiment: biochemical; type: biochemical; conditions: for inhibition potency for P450 2B1 (in words): rat P450 2B1, PROD activity
T1 sequence (P00176 1-491): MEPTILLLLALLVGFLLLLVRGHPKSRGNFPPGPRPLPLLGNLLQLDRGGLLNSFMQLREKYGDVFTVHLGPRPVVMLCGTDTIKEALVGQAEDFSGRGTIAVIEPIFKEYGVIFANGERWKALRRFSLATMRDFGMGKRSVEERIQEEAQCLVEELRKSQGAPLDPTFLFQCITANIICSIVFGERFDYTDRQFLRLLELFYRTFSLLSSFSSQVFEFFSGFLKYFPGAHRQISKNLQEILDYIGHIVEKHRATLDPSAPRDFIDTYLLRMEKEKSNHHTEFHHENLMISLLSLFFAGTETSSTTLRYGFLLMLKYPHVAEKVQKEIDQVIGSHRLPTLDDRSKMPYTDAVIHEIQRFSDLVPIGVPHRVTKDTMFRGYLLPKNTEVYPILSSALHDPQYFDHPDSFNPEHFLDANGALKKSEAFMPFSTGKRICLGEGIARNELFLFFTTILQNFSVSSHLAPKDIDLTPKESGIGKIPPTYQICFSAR

human P450 1A1 = biological target: T2, human P450 1A1 (Homo sapiens, UniProt P04798); experiment: biochemical
T2 sequence (P04798 1-512): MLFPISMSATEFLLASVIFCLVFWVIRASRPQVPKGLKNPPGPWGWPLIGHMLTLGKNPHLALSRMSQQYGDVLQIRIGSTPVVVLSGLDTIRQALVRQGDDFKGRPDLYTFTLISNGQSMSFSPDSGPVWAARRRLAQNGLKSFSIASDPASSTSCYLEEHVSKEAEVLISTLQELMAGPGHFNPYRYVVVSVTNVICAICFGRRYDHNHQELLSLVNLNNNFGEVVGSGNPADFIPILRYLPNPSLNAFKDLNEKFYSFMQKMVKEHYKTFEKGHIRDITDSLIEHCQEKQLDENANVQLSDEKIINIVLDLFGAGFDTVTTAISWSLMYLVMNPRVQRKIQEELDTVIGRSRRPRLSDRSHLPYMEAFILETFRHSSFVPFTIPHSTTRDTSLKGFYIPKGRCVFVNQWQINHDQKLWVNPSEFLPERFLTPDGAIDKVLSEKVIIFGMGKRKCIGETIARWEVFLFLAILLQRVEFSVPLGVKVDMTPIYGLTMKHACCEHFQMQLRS

human P450 1A2 = biological target: T3, human P450 1A2 (Homo sapiens, UniProt P05177); experiment: 7-methoxyresorufin O-demethylation; type: biochemical
T3 sequence (P05177 1-516): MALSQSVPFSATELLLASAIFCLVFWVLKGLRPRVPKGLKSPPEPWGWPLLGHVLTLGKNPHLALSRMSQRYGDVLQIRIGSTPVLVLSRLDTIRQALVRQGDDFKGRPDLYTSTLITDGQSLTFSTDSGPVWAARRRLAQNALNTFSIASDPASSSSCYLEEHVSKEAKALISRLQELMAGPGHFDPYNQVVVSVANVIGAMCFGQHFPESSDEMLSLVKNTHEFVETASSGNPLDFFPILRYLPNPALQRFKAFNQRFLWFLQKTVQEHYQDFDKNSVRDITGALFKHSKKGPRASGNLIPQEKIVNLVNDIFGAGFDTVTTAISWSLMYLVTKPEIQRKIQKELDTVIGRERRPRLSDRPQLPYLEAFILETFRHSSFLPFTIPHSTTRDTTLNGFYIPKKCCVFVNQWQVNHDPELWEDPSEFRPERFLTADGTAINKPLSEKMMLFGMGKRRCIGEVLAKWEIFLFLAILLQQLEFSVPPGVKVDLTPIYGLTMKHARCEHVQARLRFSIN

IC50 (rat P450 2B1) [µM] | IC50 (human P450 1A1) [µM] | IC50 (human P450 1A2) [µM] | inhibition potency for P450 2B1 (in words) (rat P450 2B1) | SMILES
41.6 | 70.5 | 59.7 |  | Oc1ccc2c(c1)[nH]c1ccccc12 [2-hydroxycarbazole, 2-Hydroxycarbazole, reference compound]
> 100 | 36.8 | 7.33 |  | Oc1cccc2[nH]c3ccccc3c12 [4-hydroxycarbazole, 4-Hydroxycarbazole, reference compound]
1.83 | 21.5 |  | good inhibition potency | COc1cccc2[nH]c3ccccc3c12 [I, 4-methoxy-9H-carbazole]
1.14 | 10.3 |  | good inhibition potency | CCOc1cccc2[nH]c3ccccc3c12 [II, 4-ethoxy-9H-carbazole]
0.659 | 8.73 |  | good inhibition potency | CCCOc1cccc2[nH]c3ccccc3c12 [III, 4-propoxy-9H-carbazole]
1.78 | 6.64 |  | good inhibition potency | C#CCOc1cccc2[nH]c3ccccc3c12 [IV, 4-(prop-2-yn-1-yloxy)-9H-carbazole]
13.3 | 35 |  |  | COc1ccc2c(c1)[nH]c1ccccc12 [V, 2-methoxy-9H-carbazole]
8.43 | 15.6 |  |  | CCOc1ccc2c(c1)[nH]c1ccccc12 [VI, 2-ethoxy-9H-carbazole]
10.6 | 26.4 |  |  | CCCOc1ccc2c(c1)[nH]c1ccccc12 [VII, 2-propoxy-9H-carbazole]
5.26 | 8.65 |  |  | C#CCOc1ccc2c(c1)[nH]c1ccccc12 [VIII, 2-(prop-2-yn-1-yloxy)-9H-carbazole]
